The record followed here is paper PMC11354720, “Assessing the Efficacy of Protease Inactivation for the Preservation of Bioactive Amphibian Skin Peptides” (International Journal of Molecular Sciences, 2024).

Where two headings read alike, the source gives them in different places. Where a SMILES comes first, the peptide text is derived from it. Bridges are numbered along the chain shown (N, C = ends).

This data set has as its system proteases in Pelophylax esculentus skin secretion. The format is in vitro ADME. The note with it: for Proteoforms, %: sum of all proteolytic forms; for Proteoforms, % / Intact, % / Oxidized, %: LC-HRMS; for Intact, %: one frog per sample; for Efficiency of the reagent in deactivating proteases in amphibian skin secretions: comparison of HCl 1%, CH3OH, HCOOH 1%, PMSF 0.1 and 1.0 mM by preservation of nine intact peptides; for Oxidized, %: Met oxidized to methionine sulfoxide. The procedure: The inhibitory capacity of methanol and hydrochloric and formic acids, as well as PMSF at the minimum and maximum concentrations traditionally used in proteomics (0.1–1.0 mM), was compared via mass spectrometric monitoring of intact and proteolytic forms of nine peptides in five samples of Pelophylax esculentus secretions (samples 1–5).
Table 2 presents quantitative data for each of the nine peptides in Table 1, showing the percentage ratio of the intact (original) form of the peptide, the oxidized form (in the presence of methionine in the sequence), and the resulting proteolytic forms: products of the action of the remaining non-deactivated proteases. The full list of the detected proteolytic forms is included into the supporting material. The presence of one or another proteolytic form for each peptide in each of the five samples was determined by observing the coincidence of their exact experimental mass with the calculated one (within 0.5 ppm according to the mass spectra), as well as the coincidence of their sequences (tandem mass spectra data).
When calculating the data in Table 2, the total amount of intensities of all its formed forms in the mass spectra was taken as 100% for each peptide. To calculate the content in each of the samples of the intact, oxidized (if any), or proteolytic form of each of the nine peptides, the sum of the intensities of the chromatographic peaks of its multicharged ions, exactly corresponding to the values of the polyprotonated molecules of each of the forms, was used. The line “Proteoforms, %” took into account the sum of all proteolytic forms of a particular peptide for each of the five samples. The values of the intensities of each of the forms (intact, oxidized, and proteolytic) obtained in this way were summed up and, in relation to their resulting sum, the percentage content of each of the three forms in Table 2 was calculated for each of the five samples with different reagents.
The skin secretions of five sexually mature female specimens of the same size of Pelophylax esculentus, caught within the Moscow city limits, were obtained via mild electro-stimulation of the skin glands using a laboratory electro-stimulator [15, 51]. The “milking” parameters were as follows: signal frequency 50 Hz, pulse duration 3 ms, voltage 12 V, total stimulation time 40 s. The secretion was washed off with deionized water into separate containers, to which the following reagents were immediately added individually: —HCl to final concentration 1% (sample 1); —CH3OH (sample 2); —HCOOH to final concentration 1% (sample 3); —0.1 mM PMSF (sample 4 in DMSO); —1.0 mM PMSF (sample 5 in DMSO). All samples were centrifuged for 15 min at 3 000 rpm, filtered through removable membrane filters (PTFE 0.45 μm), and lyophilized. The storage temperature was −26 °C. All five individuals were immediately returned to their place of capture after the procedure.
Mass spectra were obtained on an Orbitrap ID-X high-resolution mass spectrometer (Thermo Scientific, Waltham, MA, USA) coupled to an LC-30 Nexera liquid chromatograph (Shimadzu, Kyoto, Japan) in LC-HRMS mode. An HPLC system consisted of two LC-30AD chromatographic pumps, a DGU-5A vacuum degasser, a SIL-30AC autosampler, an STO-20A column thermostat, and a CBM-20A system controller. The components of the secretions were separated on an XDB-C18 column (Agilent, Santa Clara, CA, USA) with a length of 100 mm and phase particle size of 1.8 μm. Gradient chromatography was performed using the following solutions: A—0.1% formic acid solution in deionized water (Milli-Q, Millipore, Molsheim, France); B—0.1% formic acid solution in acetonitrile containing 2% deionized water. All lyophilized samples were dissolved in phase B prior to the analysis. Injection volume was set to 0.1 µL. […]

Setting [1] is: sample 1: HCl final concentration 1%, all forms = 100%.
Setting [2] is: sample 1: aqueous P. esculentus skin secretion, HCl added to final concentration 1%, sum of intensities of all forms of the peptide = 100%.
Setting [3] is: sample 2: CH3OH, all forms = 100%.
The mark [4] stands for this setting: sample 2: aqueous P. esculentus skin secretion with CH3OH added, all forms = 100%.
Where [5] appears, read: sample 3: HCOOH final concentration 1%, all forms = 100%.
Where [6] appears, read: sample 3: aqueous P. esculentus skin secretion, HCOOH added to final concentration 1%, all forms = 100%.
Setting [7] is: sample 4: PMSF 0.1 mM (in DMSO), all forms = 100%.
Where [8] appears, read: sample 5: PMSF 1.0 mM (in DMSO), all forms = 100%.
Setting [9] is: sample 5: aqueous P. esculentus skin secretion, PMSF 1.0 mM (in DMSO), all forms = 100%.
The mark [10] stands for this setting: sample 4: aqueous P. esculentus skin secretion, PMSF 0.1 mM (in DMSO), all forms = 100%.

Take `CC[C@H](C)[C@H](NC(=O)[C@H](CC(N)=O)NC(=O)[C@@H](NC(=O)[C@H](C)N)C(C)C)C(=O)N1CCC[C@H]1C(=O)N[C@@H](Cc1ccccc1)C(=O)N[C@@H](CCCCN)C(=O)N[C@H](C(=O)N[C@@H](CCCCN)C(=O)N[C@@H](Cc1ccccc1)C(=O)N[C@@H](CCCNC(=N)N)C(=O)N[C@H]1CSSC[C@@H](C(=O)O)NC(=O)[C@H](Cc2ccccc2)NC(=O)[C@H](C)NC(=O)[C@H](C)NC(=O)[C@H](CCCCN)NC1=O)C(C)C` [Ranat 2R, Ranatuerin 2R] (H-AVNIPFKVKFRCKAAFC-OH; disulfide 12-17): the “Proteoforms, %” value is, setting by setting: under setting [1], 14.79%; under setting [3], “proteolytic fragments were not recorded”; under setting [5], 34.99%; under setting [7], “proteolytic fragments were not recorded”; under setting [8], “proteolytic fragments were not recorded”. For the same molecule, the “Intact, %” value reads like this: under setting [2], 85.21%; under setting [4], 100%; under setting [6], 65.01%; under setting [9], 100%.

Take “FFPAFLKVAAKVVPSXXCSITKKC-OH (disulfide) [Brev 1LE, Brevinin 1LE, natural disulfide skin peptide of Pelophylax esculentus, brevinin 1 family, 24 aa]”: the “Proteoforms, %” value reads like this: under setting [1], “not a single proteolytic fragment was formed”; under setting [3], “not a single proteolytic fragment was formed”; under setting [5], 1.63%; under setting [7], 92.73%; under setting [8], 89.74%. Besides, the “Intact, %” value came out at 100% under setting [2]; 100% under setting [4]; 98.37% under setting [6]; 7.27% under setting [10]; 10.26% under setting [9].

For `CC[C@H](C)[C@H](NC(=O)[C@@H](N)C(C)C)C(=O)N1CCC[C@H]1C(=O)N[C@@H](Cc1ccccc1)C(=O)N[C@H](C(=O)N[C@@H](C)C(=O)N[C@@H](CO)C(=O)N[C@H](C(=O)N[C@@H](C)C(=O)N[C@@H](C)C(=O)N[C@@H](CCC(=O)O)C(=O)N[C@@H](CCSC)C(=O)N[C@@H](CCSC)C(=O)N[C@@H](CCC(N)=O)C(=O)N[C@@H](Cc1c[nH]cn1)C(=O)N[C@H](C(=O)N[C@@H](Cc1ccc(O)cc1)C(=O)N[C@H]1CSSC[C@@H](C(=O)O)NC(=O)[C@H](CCCNC(=N)N)NC(=O)[C@H](CCCNC(=N)N)NC(=O)[C@H](CO)NC(=O)[C@H](C)NC(=O)[C@H](C)NC1=O)C(C)C)C(C)C)C(C)C` [Brev 1Ra, Brevinin 1Ra] (H-VIPFVASVAAEMMQHVYCAASRRC-OH; disulfide 18-24), the “Proteoforms, %” value under setting [1] was found to be 0.75%; the “Proteoforms, %” value under setting [3] is recorded as 0.60%; the “Proteoforms, %” value under setting [5] is listed as 0.30%; the “Proteoforms, %” value under setting [8] worked out at 0.53%. Moreover, the “Intact, %” value is 93.51% under setting [2]; 98.27% under setting [4]; 99.51% under setting [6]; 77.80% under setting [10]; 99.47% under setting [9].

Consider `O=S(=O)(F)Cc1ccccc1` [PMSF, phenylmethylsulfonyl fluoride, reference compound], for which the “Efficiency of the reagent in deactivating proteases in amphibian skin secretions” value is “ineffective”.

Take “GXWNTXKATGKSA ASNVAVTLLDKAKCK(LV)GEC-OH (disulfide) [Brev 2La, Brevinin 2La, natural disulfide skin peptide of Pelophylax esculentus, brevinin 2 family, 33 aa]”: the “Proteoforms, %” value was 69.02% under setting [1], “not observed at all” under setting [3], 4.98% under setting [5] and “not observed at all” under setting [8]. For the same molecule, the “Intact, %” value is, setting by setting: under setting [2], 30.98%; under setting [4], 100%; under setting [6], 95.02%.

With `CO` [Methanol, reference compound], the “Efficiency of the reagent in deactivating proteases in amphibian skin secretions” value was “most efficient”.

Regarding “GXLDSLKNLAKNAAQILLNKASCKLSGQC-OH (disulfide) [Brev 2Rd, Brevinin 2Rd, natural disulfide skin peptide of Pelophylax esculentus, brevinin 2 family, 29 aa]”, the “Proteoforms, %” value under setting [1] turned out to be 0.39%; the “Proteoforms, %” value under setting [3] is reported as “did not degrade”; the “Proteoforms, %” value under setting [5] came to 2.23%; the “Proteoforms, %” value under setting [7] is on record as 98.45%; the “Proteoforms, %” value under setting [8] is reported as 79.16%. The “Intact, %” value by setting is: under setting [2], 99.61%; under setting [4], 100%; under setting [6], 97.77%; under setting [10], 1.55%; under setting [9], 20.84%.

“GXLDSLKNFAKDAAGILLKKASCKLSGQC-OH (disulfide) [Brev 2Ra, Brevinin 2Ra, natural disulfide skin peptide of Pelophylax esculentus, brevinin 2 family, 29 aa]”: the “Proteoforms, %” value reads like this: under setting [1], 1.02%; under setting [3], “did not degrade”; under setting [5], 1.30%; under setting [7], 88.21%; under setting [8], 14.01%. Moreover, the “Intact, %” value by setting is: under setting [2], 98.98%; under setting [4], 100%; under setting [6], 98.70%; under setting [10], 11.80%; under setting [9], 85.99%.

Take “GXLSTLKNVAKTAGKGALQSLLNAASCKLSGQC-OH (disulfide) [Brev 2L, Brevinin 2L, natural disulfide skin peptide of Pelophylax esculentus, brevinin 2 family, 33 aa]”: the “Proteoforms, %” value is listed as 1.21% under setting [1]; 4.66% under setting [3]; 4.74% under setting [5]; 99.64% under setting [7]; 80.51% under setting [8]. For the same molecule, the “Intact, %” value is, setting by setting: under setting [2], 98.79%; under setting [4], 95.34%; under setting [6], 95.26%; under setting [10], 0.36%; under setting [9], 19.49%.

For “GXFSKXAGKKXKNLXISGXKSVGKEVGMDVVRTGIDIAGCKIKGEC-OH (disulfide) [Escul 1R, Esculentin 1R, natural disulfide skin peptide of Pelophylax esculentus, esculentin 1 family, 46 aa]”, the “Oxidized, %” value is reported as 7.45% under setting [1] and 0.25% under setting [7]. Further, the “Proteoforms, %” value under setting [1] turned out to be 27.69%; the “Proteoforms, %” value under setting [3] came out at 22.15%; the “Proteoforms, %” value under setting [5] turned out to be 15.59%; the “Proteoforms, %” value under setting [7] was determined as 97.33%; the “Proteoforms, %” value under setting [8] came to 99.26%. The “Intact, %” value by setting is: under setting [2], 64.86%; under setting [4], 77.85%; under setting [6], 84.41%; under setting [10], 2.42%; under setting [9], 0.74%.
